# Measurements reported in PubChem BioAssay (NCI).
#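 Dose response: 5 concentrations. Exposure: 48 h. Format: 96-well plates. Endpoint: linear interpolation; highest concentration if not reached. TGI marks complete inhibition of growth.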
# Tests used:
# Assay in all cases: NCI anticancer screen, dose series, 48 h
# [1] = system: A498 renal
# [2] = system: A549 NSCLC
# [3] = system: ACHN renal
# [4] = system: BT-549 breast
# [5] = system: CAKI-1 renal
# [6] = system: CCRF-CEM leukemia
# [7] = system: COLO 205 colon
# [8] = system: DU-145 prostate
# [9] = system: EKVX NSCLC
# [10] = system: HCC-2998 colon
# [11] = system: HCT-116 colon
# [12] = system: HCT-15 colon
# [13] = system: HL-60(TB) leukemia
# [14] = system: HOP-62 NSCLC
# [15] = system: HOP-92 NSCLC
# [16] = system: HS 578T breast
# [17] = system: HT29 colon
# [18] = system: IGROV1 ovarian
# [19] = system: KM12 colon
# [20] = system: LOX IMVI melanoma
# [21] = system: M14 melanoma
# [22] = system: MALME-3M melanoma
# [23] = system: MCF7 breast
# [24] = system: MDA-MB-231 breast
# [25] = system: MDA-MB-435
# [26] = system: MDA-N
# [27] = system: NCI-H226 lung
# [28] = system: NCI-H23 lung
# [29] = system: NCI-H460 lung
# [30] = system: NCI-H522 lung
# [31] = system: NCI/ADR-RES ovarian
# [32] = system: OVCAR-3 ovarian
# [33] = system: OVCAR-4 ovarian
# [34] = system: OVCAR-5 ovarian
# [35] = system: OVCAR-8 ovarian
# [36] = system: PC-3 prostate
# [37] = system: RPMI-8226 leukemia
# [38] = system: RXF 393 renal
# [39] = system: SF-268 CNS
# [40] = system: SF-295 CNS
# [41] = system: SF-539 CNS
# [42] = system: SK-MEL-2 melanoma
# [43] = system: SK-MEL-28 melanoma
# [44] = system: SK-MEL-5 melanoma
# [45] = system: SK-OV-3 ovarian
# [46] = system: SNB-19 CNS
# [47] = system: SNB-75 CNS
# [48] = system: SW-620 colon
# [49] = system: T-47D breast
# [50] = system: TK-10 renal
# [51] = system: U251 CNS
# [52] = system: UACC-257 melanoma
# [53] = system: UACC-62 melanoma
# [54] = system: UO-31 renal
# [55] = system: 786-0 renal
# [56] = system: K-562 leukemia
# [57] = system: MOLT-4 leukemia
# [58] = system: SN12C renal
structure (smiles),measurement,setting,value
Cc1cc2nc(CC(C(F)(F)F)C(F)(F)F)oc2cc1C,TGI,[1],26.3 µM
same,TGI,[2],30.1 µM
same,TGI,[3],20.7 µM
same,TGI,[4],6.65 µM
same,TGI,[5],5.13 µM
same,TGI,[6],> 100 µM
same,TGI,[7],4.98 µM
same,TGI,[8],16.4 µM
same,TGI,[9],7.6 µM
same,TGI,[10],11.8 µM
same,TGI,[11],2.64 µM
same,TGI,[12],26.8 µM
same,TGI,[13],12.5 µM
same,TGI,[14],17.2 µM
same,TGI,[15],28.9 µM
same,TGI,[16],16.6 µM
same,TGI,[17],7.91 µM
same,TGI,[18],10.1 µM
same,TGI,[19],10.3 µM
same,TGI,[20],1.44 µM
same,TGI,[21],4.72 µM
same,TGI,[22],9.32 µM
same,TGI,[23],24.1 µM
same,TGI,[24],9.09 µM
same,TGI,[25],5.64 µM
same,TGI,[26],5.85 µM
same,TGI,[27],4.81 µM
same,TGI,[28],8.15 µM
same,TGI,[29],15.3 µM
same,TGI,[30],1.13 µM
same,TGI,[31],> 43.3 µM
same,TGI,[32],14.2 µM
same,TGI,[33],6.92 µM
same,TGI,[34],25.7 µM
same,TGI,[35],3.23 µM
same,TGI,[36],5.43 µM
same,TGI,[37],1.61 µM
same,TGI,[38],9.73 µM
same,TGI,[39],8.2 µM
same,TGI,[40],18.6 µM
same,TGI,[41],7.66 µM
same,TGI,[42],9.85 µM
same,TGI,[43],15.8 µM
same,TGI,[44],12.2 µM
same,TGI,[45],> 44.4 µM
same,TGI,[46],17.5 µM
same,TGI,[47],16.3 µM
same,TGI,[48],2.83 µM
same,TGI,[49],10.7 µM
same,TGI,[50],39.7 µM
same,TGI,[51],9.41 µM
same,TGI,[52],9.55 µM
same,TGI,[53],3.64 µM
same,TGI,[54],26.2 µM
COc1cc2c(cc1OC)-c1[nH]c3ccc([N+](=O)[O-])cc3c1CC(=O)N2,TGI,[55],> 100 µM
same,TGI,[1],8.31 µM
same,TGI,[2],> 100 µM
same,TGI,[3],6.2 µM
same,TGI,[4],> 100 µM
same,TGI,[5],> 26.9 µM
same,TGI,[6],> 37.6 µM
same,TGI,[7],0.811 µM
same,TGI,[8],> 100 µM
same,TGI,[9],> 84.3 µM
same,TGI,[10],5.6 µM
same,TGI,[12],> 100 µM
same,TGI,[13],7.31 µM
same,TGI,[14],9.81 µM
same,TGI,[15],> 100 µM
same,TGI,[16],> 100 µM
same,TGI,[17],> 100 µM
same,TGI,[18],> 100 µM
same,TGI,[56],> 100 µM
same,TGI,[19],> 56.1 µM
same,TGI,[20],> 100 µM
same,TGI,[21],> 100 µM
same,TGI,[22],9.34 µM
same,TGI,[23],34.9 µM
same,TGI,[24],> 100 µM
same,TGI,[25],> 100 µM
same,TGI,[26],> 100 µM
same,TGI,[57],> 76.4 µM
same,TGI,[27],1.66 µM
same,TGI,[28],> 100 µM
same,TGI,[29],6.4 µM
same,TGI,[31],> 100 µM
same,TGI,[32],1.61 µM
same,TGI,[33],> 32.1 µM
same,TGI,[34],> 83.2 µM
same,TGI,[35],> 100 µM
same,TGI,[36],99.4 µM
same,TGI,[37],47.8 µM
same,TGI,[38],4.82 µM
same,TGI,[40],> 87.8 µM
same,TGI,[41],0.716 µM
same,TGI,[42],> 52.3 µM
same,TGI,[43],> 100 µM
same,TGI,[44],5.87 µM
same,TGI,[45],> 29.8 µM
same,TGI,[58],> 55.1 µM
same,TGI,[46],> 100 µM
same,TGI,[47],8.93 µM
same,TGI,[48],> 100 µM
same,TGI,[49],> 60.5 µM
same,TGI,[50],8.92 µM
same,TGI,[51],> 100 µM
same,TGI,[52],47.1 µM
same,TGI,[53],> 100 µM
same,TGI,[54],> 23.8 µM
